The source of these data is US10793563B2, “GCN2 inhibitors and uses thereof” (Merck Patent GmbH, priority 2018, dated 2020).

In test [1] the target is GCN2 kinase (Homo sapiens (Human), UniProt Q9P2K8). In words: GCN2 Enzyme Inhibition Assay (Transcreener ADP2 fluorescence polarization). Format: biochemical. As to conditions: 280 μM ATP, 200 μM (RS)7 peptide, 4 nM GCN2, 25° C. Put shortly: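 At 25 °C, GCN2 kinase (typical final concentration 4 nM) and (RS)7 peptide in Tris-HCl pH 7.5 buffer with MgCl2, NaCl and DTT were preincubated with compound for 10 min, then ATP was added for a 1 h reaction. ADP was read by FP with antibody/Alexa633 tracer. Non-linear tight-binding analysis gave IC50 and apparent Ki.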
Sequence of GCN2 kinase (Q9P2K8 whole entry): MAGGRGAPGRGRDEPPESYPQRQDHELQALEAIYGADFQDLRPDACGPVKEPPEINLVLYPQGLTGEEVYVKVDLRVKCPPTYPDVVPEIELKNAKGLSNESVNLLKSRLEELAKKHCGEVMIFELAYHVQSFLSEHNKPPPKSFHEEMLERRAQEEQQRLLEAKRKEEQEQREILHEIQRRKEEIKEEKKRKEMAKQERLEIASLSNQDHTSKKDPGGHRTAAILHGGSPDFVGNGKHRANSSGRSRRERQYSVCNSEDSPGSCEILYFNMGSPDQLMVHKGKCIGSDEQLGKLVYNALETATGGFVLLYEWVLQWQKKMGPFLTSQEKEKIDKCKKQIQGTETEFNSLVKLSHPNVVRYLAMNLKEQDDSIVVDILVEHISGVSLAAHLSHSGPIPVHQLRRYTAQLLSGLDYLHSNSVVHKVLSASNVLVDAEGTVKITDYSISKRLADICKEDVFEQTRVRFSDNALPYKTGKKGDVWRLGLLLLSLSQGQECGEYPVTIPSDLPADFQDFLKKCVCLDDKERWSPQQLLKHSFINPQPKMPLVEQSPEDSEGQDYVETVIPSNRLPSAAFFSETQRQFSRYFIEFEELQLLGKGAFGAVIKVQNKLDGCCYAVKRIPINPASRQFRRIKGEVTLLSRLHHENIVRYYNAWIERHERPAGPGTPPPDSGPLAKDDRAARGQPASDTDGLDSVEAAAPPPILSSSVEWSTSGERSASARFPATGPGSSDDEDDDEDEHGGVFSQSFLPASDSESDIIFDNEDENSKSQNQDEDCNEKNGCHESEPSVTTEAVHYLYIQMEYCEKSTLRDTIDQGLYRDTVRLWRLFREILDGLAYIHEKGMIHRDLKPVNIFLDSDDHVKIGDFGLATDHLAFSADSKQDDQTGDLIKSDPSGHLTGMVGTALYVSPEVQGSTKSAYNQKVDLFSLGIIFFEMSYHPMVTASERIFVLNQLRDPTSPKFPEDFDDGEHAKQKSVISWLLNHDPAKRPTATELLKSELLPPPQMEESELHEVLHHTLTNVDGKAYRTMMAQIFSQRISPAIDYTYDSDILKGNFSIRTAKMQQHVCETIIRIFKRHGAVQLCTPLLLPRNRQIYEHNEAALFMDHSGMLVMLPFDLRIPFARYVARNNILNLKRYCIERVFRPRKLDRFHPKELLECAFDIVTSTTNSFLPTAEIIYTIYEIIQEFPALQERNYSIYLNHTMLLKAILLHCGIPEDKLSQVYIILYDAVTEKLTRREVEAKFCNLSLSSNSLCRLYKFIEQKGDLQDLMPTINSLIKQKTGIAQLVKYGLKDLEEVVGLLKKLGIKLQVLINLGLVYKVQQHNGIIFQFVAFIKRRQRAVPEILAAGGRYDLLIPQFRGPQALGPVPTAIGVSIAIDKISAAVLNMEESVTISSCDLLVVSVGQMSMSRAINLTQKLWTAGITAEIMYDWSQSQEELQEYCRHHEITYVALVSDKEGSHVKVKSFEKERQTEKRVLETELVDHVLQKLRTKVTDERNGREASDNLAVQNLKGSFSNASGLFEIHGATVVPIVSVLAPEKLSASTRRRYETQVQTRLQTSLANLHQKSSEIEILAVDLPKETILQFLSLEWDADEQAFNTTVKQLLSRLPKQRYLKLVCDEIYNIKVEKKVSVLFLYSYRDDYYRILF
For orientation: Fluorescence polarisation rises when a labelled molecule tumbles more slowly, as on binding a larger partner.

Test [2] deals with intracellular GCN2 (phosphorylation of the GCN2 substrate eIF2α) (Homo sapiens (Human), UniProt Q9P2K8). In words: GCN2 Cellular Inhibition Assay (AlphaScreen SureFire P-eIF2α Ser51, borrelidin-treated U2OS cells). The class given is cell-based. As to conditions: 10 μM borrelidin, 1 h, phosphorylated eIF2α Ser51, read-out: GCN2 Biomarker (IC50). The procedure, abridged:
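Phospho-eIF2α (Ser51) measured by AlphaScreen SureFire in lysates of U2OS cells stimulated 1 h at 37 °C with 10 μM borrelidin alongside compound, 4-fold dilutions from 40 μM. Inhibition expressed as percent relative to borrelidin-alone controls.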
In general terms: Alpha assays give light when donor and acceptor beads are brought close together.

Sequence of intracellular GCN2 (phosphorylation of the GCN2 substrate eIF2α) (Q9P2K8 whole entry): as above

What is called IC50 is the midpoint of a concentration-inhibition curve. As to `C[C@H]1[C@@H](c2cn[nH]c2)N(C2COC2)CCN1c1ccnc(-c2cnc3ccc(C(F)(F)F)cn23)n1` [I-361, 3-(4-((2S,3R)-2-methyl-4-(oxetan-3-yl)-3-(1H-pyrazol-4-yl)piperazin-1-yl)pyrimidin-2-yl)-6-(trifluoromethyl)imidazo[1,2-a]pyridine], the half-inhibitory concentration (IC50) lay in the range of 10 to 100 nM in test [1] and 500 to 5000 nM in test [2].
The corresponding values for `C[C@@H]1[C@H](c2cn[nH]c2)N(C2COC2)CCN1c1ccnc(-c2cnc3ccc(C(F)(F)F)cn23)n1` [I-362, 4-[(2R,3 S)-2-methyl-4-(oxetan-3-yl)-3-(1H-pyrazol-4-yl)piperazin-1-yl]-2-[6-(trifluoromethyl)imidazo[1,2-a]pyridin-3-yl]pyrimidine] are under 10 nM and under 500 nM.
Regarding `C[C@@H]1[C@@H](c2cn[nH]c2)N(C2COC2)CCN1c1ccnc(-c2cnc3ccc(C(F)(F)F)cn23)n1` [I-363, 3-(4-((2R,3R)-2-methyl-4-(oxetan-3-yl)-3-(1H-pyrazol-4-yl)piperazin-1-yl)pyrimidin-2-yl)-6-(trifluoromethyl)imidazo[1,2-a]pyridine], the concentration for half-maximal inhibition (IC50) is 100 to 1000 nM in test [1] and 500 to 5000 nM in test [2].
The matching figures for `C[C@H]1[C@H](c2cn[nH]c2)N(C2COC2)CCN1c1ccnc(-c2cnc3ccc(C(F)(F)F)cn23)n1` [I-364, 3-(4-((2S,3 S)-2-methyl-4-(oxetan-3-yl)-3-(1H-pyrazol-4-yl)piperazin-1-yl)pyrimidin-2-yl)-6-(trifluoromethyl)imidazo[1,2-a]pyridine]: 100 to 1000 nM and over 5000 nM.
As for `Cc1[nH]ncc1[C@@H]1[C@H](C)N(c2ccnc(-c3cnc4ccc(C(F)(F)F)cn34)n2)CCN1C1COC1` [I-365], the IC50 lay in the range of 100 to 1000 nM in test [1] and 500 to 5000 nM in test [2].
The matching figures for `Cc1[nH]ncc1[C@@H]1[C@@H](C)N(c2ccnc(-c3cnc4ccc(C(F)(F)F)cn34)n2)CCN1C1COC1` [I-368]: 100 to 1000 nM and 500 to 5000 nM.
Consider `FC(F)(F)c1ccc2ncc(-c3nccc(N4CCN(CC5CC5)C(c5cn[nH]c5)C4)n3)n2c1` (stereo not drawn) [I-369, 4-[4-(cyclopropylmethyl)-3-(1H-pyrazol-4-yl)piperazin-1-yl]-2-[6-(trifluoromethyl)imidazo[1,2-a]pyridin-3-yl]pyrimidine], for which the IC50 in test [1] was under 10 nM; in test [2], under 500 nM.
As for `FC(F)(F)c1ccc2ncc(-c3nccc(N4CCN(CC5C6COCC65)C(c5cn[nH]c5)C4)n3)n2c1` (stereo not drawn) [I-370, 3-(4-(4-((3-oxabicyclo[3.1.0]hexan-6-yl)methyl)-3-(1H-pyrazol-4-yl)piperazin-1-yl)pyrimidin-2-yl)-6-(trifluoromethyl)imidazo[1,2-a]pyridine], the IC50 in test [1] was under 10 nM; in test [2], under 500 nM.
Take `FC(F)(F)c1ccc2ncc(-c3nccc(N4CCN(Cc5ncc[nH]5)C(c5cn[nH]c5)C4)n3)n2c1` (stereo not drawn) [I-371, 3-(4-(4-((1H-imidazol-2-yl)methyl)-3-(1H-pyrazol-4-yl)piperazin-1-yl)pyrimidin-2-yl)-6-(trifluoromethyl)imidazo[1,2-a]pyridine]: the figures for the IC50 in test [1] and in test [2] were under 10 nM and 500 to 5000 nM, respectively.
The matching figures for `Cc1ncc(CN2CCN(c3ccnc(-c4cnc5ccc(C(F)(F)F)cn45)n3)CC2c2cn[nH]c2)[nH]1` (stereo not drawn) [I-372, 3-(4-(4-((2-methyl-1H-imidazol-5-yl)methyl)-3-(1H-pyrazol-4-yl)piperazin-1-yl)pyrimidin-2-yl)-6-(trifluoromethyl)imidazo[1,2-a]pyridine]: under 10 nM and 500 to 5000 nM.
The matching figures for `CC(C)(C)c1ncc(CN2CCN(c3ccnc(-c4cnc5ccc(C(F)(F)F)cn45)n3)CC2c2cn[nH]c2)[nH]1` (stereo not drawn) [I-373, 3-(4-(4-((2-(tert-butyl)-1H-imidazol-5-yl)methyl)-3-(1H-pyrazol-4-yl)piperazin-1-yl)pyrimidin-2-yl)-6-(trifluoromethyl)imidazo[1,2-a]pyridine]: under 10 nM and under 500 nM.
The corresponding values for `OC1CC(N2CCN(c3ccnc(-c4cnc5ccc(C(F)(F)F)cn45)n3)CC2c2cn[nH]c2)C1` (stereo not drawn) [I-383, 3-(2-(1H-pyrazol-4-yl)-4-(2-(6-(trifluoromethyl)imidazo[1,2-a]pyridin-3-yl)pyrimidin-4-yl)piperazin-1-yl)cyclobutan-1-ol] are under 10 nM and 500 to 5000 nM.
For the compound `Cn1cc(CN2CCN(c3ccnc(-c4cnc5ccc(C(F)(F)F)cn45)n3)CC2c2cn[nH]c2)cn1` (stereo not drawn) [I-384, 3-(4-(4-((1-methyl-1H-pyrazol-4-yl)methyl)-3-(1H-pyrazol-4-yl)piperazin-1-yl)pyrimidin-2-yl)-6-(trifluoromethyl)imidazo[1,2-a]pyridine], the IC50 is under 10 nM in test [1] and under 500 nM in test [2].
With `FC(F)(F)c1ccc2ncc(-c3nccc(N4CCN(Cc5cnc[nH]5)C(c5cn[nH]c5)C4)n3)n2c1` (stereo not drawn) [I-385, 3-(4-(4-((1H-imidazol-5-yl)methyl)-3-(1H-pyrazol-4-yl)piperazin-1-yl)pyrimidin-2-yl)-6-(trifluoromethyl)imidazo[1,2-a]pyridine], the IC50 in test [1] is under 10 nM; in test [2], 500 to 5000 nM.
The corresponding values for `CC(C)(C)OC(=O)N1CC2(C1)CN(c1ccnc(-c3cnc4ccc(C(F)(F)F)cn34)n1)CCO2` [I-386, tert-butyl 8-(2-(6-(trifluoromethyl)imidazo[1,2-a]pyridin-3-yl)pyrimidin-4-yl)-5-oxa-2,8-diazaspiro[3.5]nonane-2-carboxylate] are 100 to 1000 nM and 500 to 5000 nM.
Take `CC(C)(C)OC(=O)N1CC2(CCCN(c3ccnc(-c4cnc5ccc(C(F)(F)F)cn45)n3)C2)C1` [I-387, tert-butyl 6-(2-(6-(trifluoromethyl)imidazo[1,2-a]pyridin-3-yl)pyrimidin-4-yl)-2,6-diazaspiro[3.5]nonane-2-carboxylate]: the results for the concentration for half-maximal inhibition (IC50) in test [1] and in test [2] were 100 to 1000 nM and 500 to 5000 nM, respectively.
The matching figures for `CC(C)(C)OC(=O)N1CC2(C1)OCCN(c1ccnc(-c3cnc4ccc(C(F)(F)F)cn34)n1)C2(C)C` [I-388, tert-butyl 9,9-dimethyl-8-(2-(6-(trifluoromethyl)imidazo[1,2-a]pyridin-3-yl)pyrimidin-4-yl)-5-oxa-2,8-diazaspiro[3.5]nonane-2-carboxylate]: 100 to 1000 nM and over 5000 nM.
Regarding `NC(=O)C1CN(c2ccnc(-c3cnc4cc(F)c(Cl)cn34)n2)CCN1C1CC1` (stereo not drawn) [I-389, 4-(2-(6-chloro-7-fluoroimidazo[1,2-a]pyridin-3-yl)pyrimidin-4-yl)-1-cyclopropylpiperazine-2-carboxamide], the values for the half-inhibitory concentration (IC50) in test [1] and in test [2] were 10 to 100 nM and 500 to 5000 nM, respectively.
In the case of `OCC1CC(N2CCN(c3ccnc(-c4cnc5ccc(C(F)(F)F)cn45)n3)CC2c2cn[nH]c2)C1` (stereo not drawn) [I-390, (3-(2-(1H-pyrazol-4-yl)-4-(2-(6-(trifluoromethyl)imidazo[1,2-a]pyridin-3-yl)pyrimidin-4-yl)piperazin-1-yl)cyclobutyl)methanol], the concentration for half-maximal inhibition (IC50) was under 10 nM in test [1] and under 500 nM in test [2].
The matching figures for `CC(C)n1cc(C(=O)N2CCN(c3ccnc(-c4cnc5ccc(C(F)(F)F)cn45)n3)CC2c2cn[nH]c2)cn1` (stereo not drawn) [I-391, (2-(1H-pyrazol-4-yl)-4-(2-(6-(trifluoromethyl)imidazo[1,2-a]pyridin-3-yl)pyrimidin-4-yl)piperazin-1-yl)(1-isopropyl-1H-pyrazol-4-yl)methanone]: 100 to 1000 nM and 500 to 5000 nM.
As for `CC1CN(c2ccnc(-c3cnc4ccc(C(F)(F)F)cn34)n2)CC(C)N1C1CC1` (stereo not drawn) [I-392, 3-(4-(4-cyclopropyl-3,5-dimethylpiperazin-1-yl)pyrimidin-2-yl)-6-(trifluoromethyl)imidazo[1,2-a]pyridine], the concentration for half-maximal inhibition (IC50) in test [1] lay in the range of 100 to 1000 nM; in test [2], 500 to 5000 nM.
The corresponding values for `CC1CN(c2ccnc(-c3cnc4ccc(C(F)(F)F)cn34)n2)CC(C)N1CC#N` (stereo not drawn) [I-393, 2-(2,6-dimethyl-4-(2-(6-(trifluoromethyl)imidazo[1,2-a]pyridin-3-yl)pyrimidin-4-yl)piperazin-1-yl)acetonitrile] are 100 to 1000 nM and 500 to 5000 nM.
As to `CS(=O)(=O)N1CC2(CCCN(c3ccnc(-c4cnc5ccc(C(F)F)cn45)n3)C2)C1` [I-395, 6-(2-(6-(difluoromethyl)imidazo[1,2-a]pyridin-3-yl)pyrimidin-4-yl)-2-(methylsulfonyl)-2,6-diazaspiro[3.5]nonane], the IC50 fell in the range of 100 to 1000 nM in test [1] and 500 to 5000 nM in test [2].
As for `CC1(C)CN(c2ccnc(-c3cnc4ccc(C(F)F)cn34)n2)CC2(CN(S(C)(=O)=O)C2)O1` [I-396, 8-(2-(6-(difluoromethyl)imidazo[1,2-a]pyridin-3-yl)pyrimidin-4-yl)-6,6-dimethyl-2-(methylsulfonyl)-5-oxa-2,8-diazaspiro[3.5]nonane], the IC50 was 10 to 100 nM in test [1] and over 5000 nM in test [2].
On to `O=C(C1CC1)N1CCN(c2ccnc(-c3cnc4ccc(C(F)(F)F)cn34)n2)CC1c1cn[nH]c1` (stereo not drawn) [I-397, (2-(1H-pyrazol-4-yl)-4-(2-(6-(trifluoromethyl)imidazo[1,2-a]pyridin-3-yl)pyrimidin-4-yl)piperazin-1-yl)(cyclopropyl)methanone], for which the IC50 in test [1] was in the range of 10 to 100 nM; in test [2], 500 to 5000 nM.
On to `c1ccc(Oc2ccc3ncc(-c4nccc(N5CCC[C@H](c6cn[nH]c6)C5)n4)n3c2)cc1` [I-398, 2-{6-phenoxyimidazo[1,2-a]pyridin-3-yl}-4-[(3R)-3-(1H-pyrazol-4-yl)piperidin-1-yl]pyrimidine], for which the concentration for half-maximal inhibition (IC50) was 100 to 1000 nM in test [1] and 500 to 5000 nM in test [2].
As for `c1ccc(Oc2ccc3ncc(-c4nccc(N5CCC[C@@H](c6cn[nH]c6)C5)n4)n3c2)cc1` [I-399], the IC50 in test [1] fell in the range of 10 to 100 nM; in test [2], 500 to 5000 nM.
